The source of these data is patent US4447603A, “Substituted-6-n-propyl-8-methylimidazo[1,5-d]-as-triazin-4-(3H)-ones” (American Cyanamid Company, priority 1981, dated 1984).

The assay has as its system histamine release from immunologically stimulated human basophils. Briefly: inhibition of mediator (histamine) release from immunologically stimulated human basophils. In kind it is cell-based. The settings on record: Leukocyte, 1 h; human basophils (leukocytes) challenged with anti-IgE or antigen, 60 minutes at 37° C.; linear regression; read-out: ED50 (the concentration in μM which causes a 50% inhibition of histamine release). The text has this:
The novel compounds of this invention as well as the prior art compound, 6-n-propyl-8-methylimidazo[1,5-d]-as-triazin-4(3H)-one, have been tested by the procedure of Lichtenstein, L. M. and Osler, A. G., J. Exp. Med., 120, 507-530, (1964), which evaluates the ability of compounds to inhibit mediator (histamine) release from immunologically stimluated human basophils.
Dissolve 140.3 g. of sodium chloride, 7.45 g. of potassium chloride and 74.5 g. of Trizma-Tris Pre-Set, Reagent Grade, pH 7.6, at 25° C. (Sigma Chemical Co.) in sufficient water to give a final volume of 2 liters.
(Sigma Chemical Co.) (30 mg./ml.)
Made to 0.075 M and 0.5 M. respectively, with calcium chloride dihydrate and magnesium chloride hexahydrate.
A 10 ml. portion of 10X Tris Buffer and 1.0 ml. of human albumin are diluted to 100 ml. with water.
A 10 ml. portion of 10X Tris Buffer, 1.0 ml. of human albumin. 0.8 ml. of calcium stock and 0.2 ml. of magnesium stock are diluted to 100 ml. with water.
Behring Diagnostics (Generally used at 10 μg. protein/ml. final concentration.)
Strength 1:100 (w:v) allergenic extract, Hollister-Stier Labs. Generally this is diluted 1:1000 to 1:10,000 (considering the vial as stock).
Intradermal solutions or intramuscular preparations for hyposensitization, Hollister-Stier Labs. The final concentration used is on the order of 1 PNU/ml.
Eighty milliliters of blood is withdrawn from subjects with known histamine release to anti-IgE, ragweed antigen or other specific allergen, using four 20 ml. heparinized tubes. This 80 ml. of blood is mixed with 20 ml. of saline containing 0.6 g. of dextrose and 1.2 g. of dextran. The blood is allowed to sediment at room temperature in two 50 ml. polycarbonate centrifuge tubes until a sharp interface develops between the red cells and plasma (60-90 minutes). The plasma (top) layer from each tube is withdrawn by pipet and transferred to respective 50 ml. polycarbonate tubes. The plasma is centrifuged for 8 minutes at 110X g at […] The supernatant is carefully poured off as completely as possible and the cell button is resuspended in 2-3 ml. of Tris-A buffer using a siliconized Pasteur pipet. The resuspension is accomplished by drawing the liquid gently in and out of the pipet, with the tip below the liquid, until an even suspension of cells is obtained. Sufficient Tris-A buffer is then added to bring the volume in the tube to about 45 ml. and the tube is centrifuged at 110X g for 8 minutes at 4° C. The supernatant is poured off and the cell button is resuspended and centrifuged as described above. […]

For `CCCc1nc(C)c2c(C)n[nH]c(=O)n12` [1,8-Dimethyl-6-n-propylimidazo[1,5-d]-as-triazin-4(3H)-one], the IC50 is 13.1 µM.
The value for `CCCc1nc(C)c2cn[nH]c(=O)n12` [6-n-propyl-8-methylimidazo[1,5-d]-as-triazin-4(3H)-one, reference compound] was 87 µM.
Under `CCCc1nc(C)c2c(CC)n[nH]c(=O)n12` [1-Ethyl-6-n-propyl-8-methylimidazo[1,5-d]-as-triazin-4(3H)-one] stands 12.3 µM.
The value for `CCCc1n[nH]c(=O)n2c(CCC)nc(C)c12` [1,6-Di-n-propyl-8-methylimidazo[1,5-d]-as-triazin-4(3H)-one] was 16.1 µM.
